“Also recorded” adds a separate entry of the source. Read-outs that look alike come from different tables or passages of the source.
Assays:
[1] = test system: CDC1551(hspX′:GFP) reporter; assay: microbe, parasite or virus in culture; assay type: cell-based, Mycobacterium tuberculosis; settings: for EC50: Mycobacterium tuberculosis, read-out: EC50 of inhibition of CDC1551(hspX′:GFP) reporter (dosR-dependent GFP) fluorescence
DosT [2] = target: T1, DosT (Mycobacterium tuberculosis, UniProt P9WGK1); assay type: biochemical
T1 sequence (P9WGK1 whole entry): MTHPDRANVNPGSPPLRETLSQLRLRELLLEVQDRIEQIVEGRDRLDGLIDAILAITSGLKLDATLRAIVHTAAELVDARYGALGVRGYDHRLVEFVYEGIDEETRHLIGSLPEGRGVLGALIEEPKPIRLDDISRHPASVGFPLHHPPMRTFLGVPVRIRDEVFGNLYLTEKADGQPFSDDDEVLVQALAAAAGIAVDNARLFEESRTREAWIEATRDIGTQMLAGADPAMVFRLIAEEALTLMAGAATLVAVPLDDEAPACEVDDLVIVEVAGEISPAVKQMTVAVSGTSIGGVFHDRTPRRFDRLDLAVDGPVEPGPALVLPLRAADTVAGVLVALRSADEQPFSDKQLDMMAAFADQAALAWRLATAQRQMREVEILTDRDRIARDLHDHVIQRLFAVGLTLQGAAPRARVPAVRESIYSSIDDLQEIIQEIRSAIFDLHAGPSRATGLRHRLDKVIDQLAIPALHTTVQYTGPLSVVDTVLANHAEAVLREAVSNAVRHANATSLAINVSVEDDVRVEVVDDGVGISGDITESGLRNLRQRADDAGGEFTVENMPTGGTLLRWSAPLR

TAG accumulation = assay type: cell-based, Mycobacterium tuberculosis
Mtb = assay: microbe, parasite or virus in culture; assay type: cell-based; settings: Mycobacterium tuberculosis, read-out: growth inhibition EC50
Mtb Erdman [3] = assay: microbe, parasite or virus in culture; settings: Mycobacterium tuberculosis, 240 h, read-out: reduction of Mtb viability in the presence of 5 μM INH relative to cultures not treated with INH
DosS [4] = target: T2, DosS (Mycobacterium tuberculosis, UniProt P9WGK3); assay: DosS autophosphorylation assay; assay type: biochemical
T2 sequence (P9WGK3 whole entry): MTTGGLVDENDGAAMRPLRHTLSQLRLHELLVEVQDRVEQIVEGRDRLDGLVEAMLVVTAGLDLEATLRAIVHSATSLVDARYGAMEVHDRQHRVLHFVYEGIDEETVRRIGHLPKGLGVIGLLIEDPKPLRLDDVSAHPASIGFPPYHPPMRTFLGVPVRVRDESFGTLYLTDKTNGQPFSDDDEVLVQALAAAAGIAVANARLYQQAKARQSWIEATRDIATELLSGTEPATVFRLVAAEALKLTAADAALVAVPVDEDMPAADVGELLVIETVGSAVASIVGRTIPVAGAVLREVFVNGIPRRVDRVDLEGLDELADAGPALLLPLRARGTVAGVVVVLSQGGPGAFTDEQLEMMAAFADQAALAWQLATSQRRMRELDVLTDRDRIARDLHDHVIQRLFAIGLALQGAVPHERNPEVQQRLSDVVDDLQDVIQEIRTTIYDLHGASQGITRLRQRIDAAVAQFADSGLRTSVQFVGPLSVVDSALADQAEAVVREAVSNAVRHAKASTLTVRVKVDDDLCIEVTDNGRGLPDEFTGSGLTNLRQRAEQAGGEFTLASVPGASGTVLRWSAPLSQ

DosS [5] = target: T2, DosS; assay type: biochemical
Mtb CDC1551 = assay: microbe, parasite or virus in culture; settings: Mycobacterium tuberculosis, CDC1551, read-out: reduction of viability relative to DMSO treated control
DosT [6] = target: T1, DosT; assay: DosT autophosphorylation assay; assay type: biochemical
[7] = test system: DosR regulon genes (dosR, hspX and tgs1); assay: NO and vitamin C sensitivity assays (RT-PCR); assay type: cell-based, Mycobacterium tuberculosis
DosS [8] = target: T2, DosS; assay: LC-MS analysis of DosS reaction samples for heme-artemisinin adducts; assay type: biochemical; settings: DosS treated with artemisinin vs DMSO
[9] = test system: DosR regulon genes (dosR, hspX and tgs1); assay: RT-PCR of DosR regulon genes under hypoxia; assay type: cell-based, Mycobacterium tuberculosis; settings: 6 days
Mtb Erdman [10] = settings: ERDMAN, 360 h

C[C@@H]1CC(C)(C)C[C@]2(C1)NC(=O)NC2=O (racemic) [HC102A, 7,7,9-trimethyl-1,3-diazaspiro[4.5]decane-2,4-dione]
activity of compound regenerated by organic synthesis [1]: confirmed to have the activity of the commercially sourced compounds
EC50 ([1]; 6 days of treatment): 12.4 µM
effect on redox status of DosT heme (DosT [2]; UV-visible spectra): no impact on the redox status
reduction in TAG accumulation (TAG accumulation; CDC1551, 40 μM, 6 days): 67%
EC50 (Mtb; 6 days, optical density, unit given as M): > 80 µM
inhibition at 40 µM (Mtb Erdman [3]): ~30%
IC50 (DosS [4]; 1 hour incubation, read-out: IC50 of inhibition of DosS autophosphorylation): 1.9 µM
maximal inhibition of DosS autophosphorylation (DosS [4]; dose response): ~60%
effect on redox status of DosS heme (DosS [5]; UV-visible spectra vs DMSO control): no impact on the redox status; also recorded: no effect in modulating redox status of DosS
inhibition at 10 µM (Mtb CDC1551): ~50%
impact on DosT autophosphorylation (DosT [6]; dose response, 1 hour): limited impact
repression of tgs1 transcript following treatment with DETA-NONOate ([7]; 80 μM pretreatment 24 h, 50 μM DETA-NONOate 2 h): 3 fold
repression of tgs1 transcript in vitamin C treated cells ([7]; 80 μM pretreatment 24 h, 2 mM vitamin C 2 h): 2 fold
inhibition of induction of DosR regulon (dosR, hspX, tgs1) by NO and vitamin C ([7]; pretreatment 24 h, induction 2 h): strongly inhibited the induction; also recorded: inhibited the induction of DosR regulon

C[C@@H]1CC[C@H]2[C@@H](C)C(=O)O[C@@H]3O[C@]4(C)CC[C@@H]1[C@]32OO4 [HC101A, artemisinin, reference compound]
concentration at which artemisinin modulates DosT heme / inhibits DosT (DosT [2]; DTN-reduced DosT): 50 µM
reduction in TAG accumulation (TAG accumulation; CDC1551, 40 μM, 6 days): 74%
inhibition at 40 µM (Mtb Erdman [3]): ~30%
formation of heme-artemisinin adducts (LC-MS) (DosS [8]): alkylates the sensor kinase heme to form heme-artemisinin adducts
inhibition at 10 µM (Mtb CDC1551): ~50%
inhibition of dosRS (real-time PCR) [9]: 37 fold
inhibition of hspX (real-time PCR) [9]: 51 fold
inhibition of tgs1 (real-time PCR) [9]: 166 fold

O=C(Nc1cccc(O)c1)c1cccc(NC(=O)c2cccs2)c1 [HC103A, N-[3-[(3 hydroxyphenyl)carbamoyl]phenyl]thiophene-2-carboxamide]
activity of compound regenerated by organic synthesis [1]: confirmed to have the activity of the commercially sourced compounds
EC50 ([1]; […]): 2.7 µM
effect on redox status of DosT heme (DosT [2]): no impact on the redox status
reduction in TAG accumulation (TAG accumulation): 56%
EC50 (Mtb; […]): > 80 µM
inhibition at 40 µM (Mtb Erdman [3]): ~30%
IC50 (DosS [4]): 0.5 µM
maximal inhibition of DosS autophosphorylation (DosS [4]): ~90%
effect on redox status of DosS heme (DosS [5]): no impact on the redox status; also recorded: no effect in modulating redox status of DosS
reduction of Mtb viability when treated with 5 μM INH (Mtb Erdman [10]): ~50%
inhibition at 10 µM (Mtb CDC1551): ~50%
IC50 (DosT [6]): ~5 µM
inhibition of induction of DosR regulon (dosR, hspX, tgs1) by NO and vitamin C [7]: strongly inhibited the induction; also recorded: inhibited the induction of DosR regulon
repression of tgs1 transcript following treatment with DETA-NONOate [7]: 50 fold
repression of tgs1 transcript in vitamin C treated cells [7]: 3 fold

— patent US11717508B2, “Compounds, compositions, and methods for inhibiting bacterial growth” (priority 2016, dated 2023)
